doi:10.1101/2024.06.07.597859v1 (biorxiv, 2024)

Biological target: T1, PfTSEN1 (Plasmodium falciparum, UniProt A0A144A1E9)
T1 sequence (A0A144A1E9 1-220): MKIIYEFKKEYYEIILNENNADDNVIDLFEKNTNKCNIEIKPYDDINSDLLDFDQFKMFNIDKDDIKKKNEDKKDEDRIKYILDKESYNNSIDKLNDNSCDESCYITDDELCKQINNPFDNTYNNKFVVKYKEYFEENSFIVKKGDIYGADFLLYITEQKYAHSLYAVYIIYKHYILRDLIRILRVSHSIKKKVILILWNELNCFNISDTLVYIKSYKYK
Assay: microscale thermophoresis
Type: binding

For NCCCn1ccc2c1C(=O)c1cccnc1C2=O [TSENi, 1-(3-aminopropyl)-1H-pyrrolo[2,3-f]quinoline-4,9-dione], the Kd was 945 nM.
